In US20250114356A1, “INDAZOLE BASED COMPOUNDS AND ASSOCIATED METHODS OF USE” (Arvinas Operations, Inc., priority 2020, published 2025):

Experiments:
G2019S LRRK2 = biological target: T1, G2019S LRRK2 (Homo sapiens, UniProt Q5S007, G2019S); experiment: LRRK2 degradation assay, G2019S LRRK2-HiBit expressed from plasmid in HEK293 cells; assay type: cell-based; settings: HEK293 cells transfected with HiBit-tagged G2019S LRRK2, 24 hours compound incubation
T1 construct: expressed in transfected cells; host or cells: HEK293 (ATCC CRL-1573), transient transfection, ubiquitin promoter
Method: (§1) The assay measures the degradation of wildtype and G2019S LRRK2 tagged with a HiBit tag on the C-terminus of the protein that was expressed from a mammalian expression vector, driven by the ubiquitin promoter in HEK293 cells. Each compound dose-response was repeated on two separate days, on three separate plates each day.
(§2) Plasmid Preparation. Transfection mixes were assembled as follows and incubated for 30 minutes at room temperature. In a 15 mL tube, 5.25 mL Opti-MEM (no additions) was mixed with 17 μL Firefly Luciferase plasmid at 1 μg/μL and 158 μL WT plasmid DNA at 1 μg/μL (175 μg total DNA) were mixed by flicking. In a new 15 mL tube, 5.25 mL OptiMEM was mixed with 17 μL Firefly Luciferase plasmid at 1 μg/μL and 158 μL G2019S plasmid DNA at 1 μg/μL (175 μg total DNA) were mixed by flicking. X-tremeGene HP was mixed thoroughly using a vortex. Next, 175 μL was added to each tube and flicked to mix. Both tubes were left to incubate for 30 minutes at room temperature.
(§3) While the transfection mixes were incubating, HEK293 cells (acquired from ATCC; ATCC CRL-1573) were harvested with trypsin. Once cells are detached, the cells were resuspended in 12 mL OptiMEM+5% FBS and transferred to a 50 mL tube. The cells were mixed well and counted. Using OptiMEM+5% FBS, the cells were diluted in two 250 mL conical tubes at 0.71×10^6 cells/mL in 70 mL. One tube was labeled “WT” and the other “G2019S”. The WT and G2019S transfection mixes were added dropwise to the corresponding 250 mL tubes. The tubes were mixed first by pipetting then by swirling. The tubes were incubated at room temperature for at least 5 minutes.
(§4) Each tube was swirled before dispensing and after every three plates. Seventy microliters of cells were dispensed with WT or G2019S DNA to seven plates each. Three plates of each were tested with compound plate one (preparation described below) and three plates of each were tested with compound plate two (preparation described below). The first plate from each set served as a “prime” plate and was not used to test compounds. Each plate was incubated in the hood for 10 minutes before placing in the 37° C. incubator for 24 hours.
(§5) Preparation of Compound and Assay Plates. Two compound plates were made using 96 well polypropylene plates. Compounds were made up at 10 mM and were diluted to 1 mM in 30 μL. Each dose response curve included a well of DMSO, as a negative control and for normalization, and a well of 0.5 μM of Exemplary Compound 4 as a positive control. In addition to seven test compounds, each plate also included a dose response of Exemplary Compound 4. The compound plates were spun down along at 1200 rpm for 2 minutes.
(§6) The two compound plates were then mixed and 2 μL was diluted in intermediate plates having 248 μL of Opti-Mem in each well. Next, 10 μL diluted compounds from the intermediate plates were added to each test plate (three WT and three G2019S plates per compound plate for a total of 12 assay plates). The plates were incubated for 24 hours at 37° C.
(§7) All assay plates and all Nano-Glo Dual-Luciferase Reporter Assay System components (except for the DLR substrate) were equilibrated to room temperature. Next, the luciferase buffer was mixed with the lyophilized amber bottle until fully dissolved, and 75 μL of the luciferase mixture was added to each well of each assay plate. The assay plates were incubated for 10 minutes at room temperature with shaking for at least 5 minutes, and then read on a plate reader.
(§8) Developing Plates and Analyzing Data. One milliliter of DLR substrate and 1 mL LgBiT Protein were added to the Stop and Glo buffer, and 75 μL of the mixture was added to each well of each plate. Optically clear seals were added to each plate and each plate was incubated for 20 minutes with shaking for at least 10 minutes, and then read on a plate reader. […]

wildtype LRRK2 = biological target: T2, wildtype LRRK2 (Homo sapiens, UniProt Q5S007); experiment: LRRK2 degradation assay, wildtype LRRK2-HiBit expressed from plasmid in HEK293 cells; assay type: cell-based; settings: HEK293 cells transfected with HiBit-tagged wildtype LRRK2, 24 hours compound incubation; for Dmax: read-out: **WT Dmax (%); for DC50: read-out: *WT DC50
T2 construct: expressed in transfected cells; host or cells: HEK293 (ATCC CRL-1573), transient transfection, ubiquitin promoter
Method: as §1, §2, §3, §4, §5, §6, §7, §8

T2 sequence (Q5S007 whole entry): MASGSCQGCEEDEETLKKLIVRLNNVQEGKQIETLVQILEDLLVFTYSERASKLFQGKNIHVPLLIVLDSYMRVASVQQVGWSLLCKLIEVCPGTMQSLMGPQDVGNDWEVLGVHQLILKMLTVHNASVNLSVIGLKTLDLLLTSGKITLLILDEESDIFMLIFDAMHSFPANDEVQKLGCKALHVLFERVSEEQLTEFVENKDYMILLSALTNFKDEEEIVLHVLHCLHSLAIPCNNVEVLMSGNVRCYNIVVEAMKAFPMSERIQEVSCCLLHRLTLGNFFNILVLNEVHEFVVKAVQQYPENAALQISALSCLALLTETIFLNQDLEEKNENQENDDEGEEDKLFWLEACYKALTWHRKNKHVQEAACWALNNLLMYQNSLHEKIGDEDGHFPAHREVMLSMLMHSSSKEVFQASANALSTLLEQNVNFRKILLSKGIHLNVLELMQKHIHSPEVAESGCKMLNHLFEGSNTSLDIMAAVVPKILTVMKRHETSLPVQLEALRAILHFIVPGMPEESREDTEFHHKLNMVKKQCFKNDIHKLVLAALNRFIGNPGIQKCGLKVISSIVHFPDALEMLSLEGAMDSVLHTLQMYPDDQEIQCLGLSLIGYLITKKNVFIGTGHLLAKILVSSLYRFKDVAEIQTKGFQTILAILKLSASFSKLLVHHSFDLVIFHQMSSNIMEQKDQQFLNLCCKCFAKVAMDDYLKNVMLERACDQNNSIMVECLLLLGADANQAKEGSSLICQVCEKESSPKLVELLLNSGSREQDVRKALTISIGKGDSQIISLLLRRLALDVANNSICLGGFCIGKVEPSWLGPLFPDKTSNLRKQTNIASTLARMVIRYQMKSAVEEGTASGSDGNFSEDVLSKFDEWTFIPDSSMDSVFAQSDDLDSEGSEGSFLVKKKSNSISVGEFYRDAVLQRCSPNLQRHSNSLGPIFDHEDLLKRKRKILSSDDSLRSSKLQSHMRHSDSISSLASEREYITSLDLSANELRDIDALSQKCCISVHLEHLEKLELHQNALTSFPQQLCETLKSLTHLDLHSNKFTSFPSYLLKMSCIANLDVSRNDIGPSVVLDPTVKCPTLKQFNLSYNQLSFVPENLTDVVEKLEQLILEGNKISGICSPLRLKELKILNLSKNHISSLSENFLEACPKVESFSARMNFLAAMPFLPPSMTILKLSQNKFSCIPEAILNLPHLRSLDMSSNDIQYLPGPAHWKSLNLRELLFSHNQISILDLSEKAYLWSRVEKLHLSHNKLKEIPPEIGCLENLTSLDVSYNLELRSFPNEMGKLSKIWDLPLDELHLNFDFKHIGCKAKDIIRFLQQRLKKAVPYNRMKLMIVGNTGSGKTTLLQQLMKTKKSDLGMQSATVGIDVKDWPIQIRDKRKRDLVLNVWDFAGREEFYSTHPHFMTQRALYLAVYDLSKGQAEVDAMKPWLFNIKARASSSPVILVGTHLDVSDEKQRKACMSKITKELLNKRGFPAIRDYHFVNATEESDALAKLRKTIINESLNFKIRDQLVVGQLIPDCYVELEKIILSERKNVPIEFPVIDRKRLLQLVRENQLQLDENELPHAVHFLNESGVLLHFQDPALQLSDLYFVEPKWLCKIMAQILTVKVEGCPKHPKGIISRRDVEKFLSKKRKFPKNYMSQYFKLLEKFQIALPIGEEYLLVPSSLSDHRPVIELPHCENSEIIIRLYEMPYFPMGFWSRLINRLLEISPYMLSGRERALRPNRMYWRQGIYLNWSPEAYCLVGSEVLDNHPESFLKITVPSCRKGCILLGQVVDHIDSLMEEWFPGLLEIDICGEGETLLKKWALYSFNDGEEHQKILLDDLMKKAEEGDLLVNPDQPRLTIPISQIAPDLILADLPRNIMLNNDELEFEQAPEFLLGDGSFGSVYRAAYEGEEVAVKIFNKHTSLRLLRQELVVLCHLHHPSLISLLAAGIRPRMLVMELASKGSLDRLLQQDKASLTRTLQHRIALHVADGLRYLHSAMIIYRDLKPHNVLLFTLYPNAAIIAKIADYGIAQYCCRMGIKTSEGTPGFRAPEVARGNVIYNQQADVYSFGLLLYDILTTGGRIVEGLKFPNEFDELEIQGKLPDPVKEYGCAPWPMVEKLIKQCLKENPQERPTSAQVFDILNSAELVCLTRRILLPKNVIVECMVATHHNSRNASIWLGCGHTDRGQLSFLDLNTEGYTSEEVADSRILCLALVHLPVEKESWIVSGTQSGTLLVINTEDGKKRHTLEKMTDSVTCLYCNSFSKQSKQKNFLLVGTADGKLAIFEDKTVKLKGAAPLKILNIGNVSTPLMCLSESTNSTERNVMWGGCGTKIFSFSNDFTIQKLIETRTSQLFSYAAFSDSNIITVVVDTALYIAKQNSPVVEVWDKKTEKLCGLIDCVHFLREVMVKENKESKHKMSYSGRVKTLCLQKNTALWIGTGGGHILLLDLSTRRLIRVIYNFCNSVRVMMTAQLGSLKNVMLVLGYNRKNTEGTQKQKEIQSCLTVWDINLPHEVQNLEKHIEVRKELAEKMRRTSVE
T1 sequence (Q5S007 whole entry G2019S): as the sequence (Q5S007 whole entry) above, with G2019S counted along it

SMILES | DC50 (G2019S LRRK2) [nM] | Dmax (G2019S LRRK2) [%] | Dmax (wildtype LRRK2) [%] | DC50 (wildtype LRRK2) [nM]
CC1(Oc2ccc3[nH]nc(-c4cc(N5CCO[C@H](CCOCCOCCOCCOc6ccc7c(c6)C(=O)N(C6CCC(=O)NC6=O)C7=O)C5)ncn4)c3c2)CC1 (stereo in doubt) [compound 17, 2-(2,6-dioxopiperidin-3-yl)-5-(2-(2-(2-(2-(4-(6-(5-(1-methylcyclopropoxy)-1H-indazol-3-yl)pyrimidin-4-yl)morpholin-2-yl)ethoxy)ethoxy)ethoxy)ethoxy)isoindoline-1,3-dione] | 50 to 100 | ≥ 70 | ≥ 70 | 10 to 50
C[C@H]1CN(c2cc(-c3[nH]nc4ccc(OC5(C)CC5)cc34)ncn2)CCN1CCOc1ccc2c(c1)C(=O)N(C1CCC(=O)NC1=O)C2=O (stereo partly drawn) [compound 1, 2-(2,6-dioxopiperidin-3-yl)-5-{2-[(2S)-2-methyl-4-{6-[5-(1-methylcyclopropoxy)-1H-indazol-3-yl]pyrimidin-4-yl}piperazin-1-yl]ethoxy}-2,3-dihydro-1H-isoindole-1,3-dione] | < 10 | < 50 | < 50 | < 10
C[C@H]1CN(c2cc(-c3n[nH]c4ccc(OC5(C)CC5)cc34)ncn2)CCN1CCOCCOc1ccc2c(c1)C(=O)N(C1CCC(=O)NC1=O)C2=O (stereo partly drawn) [compound 2, 2-(2,6-dioxopiperidin-3-yl)-5-(2-{2-[(2S)-2-methyl-4-{6-[5-(1-methylcyclopropoxy)-1H-indazol-3-yl]pyrimidin-4-yl}piperazin-1-yl]ethoxy}ethoxy)-2,3-dihydro-1H-isoindole-1,3-dione] | < 10 | < 50 | 50 to 70 | < 10
C[C@H]1CN(c2cc(-c3n[nH]c4ccc(OC5(C)CC5)cc34)ncn2)CCN1CCOCCOCCOCCOCCOc1ccc2c(c1)C(=O)N(C1CCC(=O)NC1=O)C2=O (stereo partly drawn) [compound 5, 2-(2,6-dioxopiperidin-3-yl)-5-({14-[(2S)-2-methyl-4-{6-[5-(1-methylcyclopropoxy)-1H-indazol-3-yl]pyrimidin-4-yl}piperazin-1-yl]-3,6,9,12-tetraoxatetradecan-1-yl}oxy)-2,3-dihydro-1H-isoindole-1,3-dione] | 10 to 50 | ≥ 70 | ≥ 70 | 10 to 50
C[C@@H]1CN(c2cc(-c3n[nH]c4ccc(OC5(C)CC5)cc34)ncn2)C[C@H](C)N1CCOCCOCCOc1ccc2c(c1)C(=O)N(C1CCC(=O)NC1=O)C2=O (stereo partly drawn) [compound 6, 5-[2-(2-{2-[(2R,6S)-2,6-dimethyl-4-{6-[5-(1-methylcyclopropoxy)-1H-indazol-3-yl]pyrimidin-4-yl}piperazin-1-yl]ethoxy}ethoxy)ethoxy]-2-(2,6-dioxopiperidin-3-yl)-2,3-dihydro-1H-isoindole-1,3-dione] | < 10 | 50 to 70 | 50 to 70 | < 10
C[C@@H]1CN(c2cc(-c3n[nH]c4ccc(OC5(C)CC5)cc34)ncn2)C[C@H](C)N1CCOCCOCCOCCOc1ccc2c(c1)C(=O)N(C1CCC(=O)NC1=O)C2=O (stereo partly drawn) [compound 7, 5-{2-[2-(2-{2-[(2R,6S)-2,6-dimethyl-4-{6-[5-(1-methylcyclopropoxy)-1H-indazol-3-yl]pyrimidin-4-yl}piperazin-1-yl]ethoxy}ethoxy)ethoxy]ethoxy}-2-(2,6-dioxopiperidin-3-yl)-2,3-dihydro-1H-isoindole-1,3-dione] | < 10 | 50 to 70 | ≥ 70 | < 10
CC(C)Oc1ccc2[nH]nc(-c3cc(N4C[C@@H](C)N(CCOCCOCCOCCOc5ccc6c(c5)C(=O)N(C5CCC(=O)NC5=O)C6=O)[C@@H](C)C4)ncn3)c2c1 (stereo partly drawn) [compound 10, 5-{2-[2-(2-{2-[(2R,6S)-2,6-dimethyl-4-{6-[5-(propan-2-yloxy)-1H-indazol-3-yl]pyrimidin-4-yl}piperazin-1-yl]ethoxy}ethoxy)ethoxy]ethoxy}-2-(2,6-dioxopiperidin-3-yl)-2,3-dihydro-1H-isoindole-1,3-dione] | 10 to 50 | 50 to 70 | 50 to 70 | 10 to 50
CC(C)Oc1ccc2[nH]nc(-c3cc(N4CCN(CCN5CC(CCN6CCN(c7ccc8c(c7)C(=O)N(C7CCC(=O)NC7=O)C8=O)CC6)C5)CC4)ncn3)c2c1 (centres unmarked) [compound 46, 2-(2,6-dioxopiperidin-3-yl)-5-(4-(2-(1-(2-(4-(6-(5-isopropoxy-1H-indazol-3-yl)pyrimidin-4-yl)piperazin-1-yl)ethyl)azetidin-3-yl)ethyl)piperazin-1-yl)isoindoline-1,3-dione] | – | – | 50 to 70 | < 10

Other lines, results leading:

DC50 (G2019S LRRK2) [nM] | Dmax (G2019S LRRK2) [%] | Dmax (wildtype LRRK2) [%] | DC50 (wildtype LRRK2) [nM] | SMILES
10 to 50 | 50 to 70 | ≥ 70 | < 10 | C[C@H]1CN(c2cc(-c3n[nH]c4ccc(OC5(C)CC5)cc34)ncn2)CCN1CCOCCOCCOc1ccc2c(c1)C(=O)N(C1CCC(=O)NC1=O)C2=O (stereo partly drawn) [compound 3, 2-(2,6-dioxopiperidin-3-yl)-5-[2-(2-{2-[(2S)-2-methyl-4-{6-[5-(1-methylcyclopropoxy)-1H-indazol-3-yl]pyrimidin-4-yl}piperazin-1-yl]ethoxy}ethoxy)ethoxy]-2,3-dihydro-1H-isoindole-1,3-dione]
≥ 100 | < 50 | < 50 | ≥ 100 | CC(C)Oc1ccc2[nH]nc(-c3cc(N4CCN(CCOCCOCCOc5ccc6c(c5)C(=O)N(C5CCC(=O)NC5=O)C6=O)[C@@H](C)C4)ncn3)c2c1 (stereo partly drawn) [compound 8, 2-(2,6-dioxopiperidin-3-yl)-5-[2-(2-{2-[(2S)-2-methyl-4-{6-[5-(propan-2-yloxy)-1H-indazol-3-yl]pyrimidin-4-yl}piperazin-1-yl]ethoxy}ethoxy)ethoxy]-2,3-dihydro-1H-isoindole-1,3-dione]
≥ 100 | < 50 | < 50 | ≥ 100 | CC(C)Oc1ccc2[nH]nc(-c3cc(N4CCN(CCOCCOCCOCCOc5ccc6c(c5)C(=O)N(C5CCC(=O)NC5=O)C6=O)[C@@H](C)C4)ncn3)c2c1 (stereo partly drawn) [compound 9, 2-(2,6-dioxopiperidin-3-yl)-5-{2-[2-(2-{2-[(2S)-2-methyl-4-{6-[5-(propan-2-yloxy)-1H-indazol-3-yl]pyrimidin-4-yl}piperazin-1-yl]ethoxy}ethoxy)ethoxy]ethoxy}-2,3-dihydro-1H-isoindole-1,3-dione]
10 to 50 | 50 to 70 | 50 to 70 | ≥ 100 | CC(C)Oc1ccc2[nH]nc(-c3ccnc(N4CCN(CCOCCOCCOCCOc5ccc6c(c5)C(=O)N(C5CCC(=O)NC5=O)C6=O)[C@@H](C)C4)c3)c2c1 (stereo partly drawn) [compound 11, 2-(2,6-dioxopiperidin-3-yl)-5-{2-[2-(2-{2-[(2S)-2-methyl-4-{4-[5-(propan-2-yloxy)-1H-indazol-3-yl]pyridin-2-yl}piperazin-1-yl]ethoxy}ethoxy)ethoxy]ethoxy}-2,3-dihydro-1H-isoindole-1,3-dione]
< 10 | ≥ 70 | ≥ 70 | < 10 | C[C@H]1CN(c2cc(-c3n[nH]c4ccc(OC5(C)CC5)cc34)ccn2)CCN1CCOCCOCCOCCOc1ccc2c(c1)C(=O)N(C1CCC(=O)NC1=O)C2=O (stereo partly drawn) [compound 12, 2-(2,6-dioxopiperidin-3-yl)-5-{2-[2-(2-{2-[(2S)-2-methyl-4-{4-[5-(1-methylcyclopropoxy)-1H-indazol-3-yl]pyridin-2-yl}piperazin-1-yl]ethoxy}ethoxy)ethoxy]ethoxy}-2,3-dihydro-1H-isoindole-1,3-dione]
